In ChEMBL document CHEMBL1201862, “PubChem BioAssay data set” (2004):
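A five-concentration, 48-hour dose response in 96-well plates underlies each endpoint, interpolated linearly between surrounding concentrations. Here, GI50 denotes the concentration required for 50% inhibition of growth.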 The source made the active and inactive calls. Cut-off read from the data, not from the text of the source: active = GI50 up to about 1.1 µM and inactive = higher.

Columns and labels:
Test in all cases: NCI tumour cell line growth inhibition, 48 h
[1] = test system: DU-145
[2] = test system: SF-295
[3] = test system: SF-268
[4] = test system: NCI-H522
[5] = test system: BT-549
[6] = test system: MDA-MB-231
[7] = test system: LOX IMVI
[8] = test system: CAKI-1
[9] = test system: COLO 205
[10] = test system: KM12
[11] = test system: OVCAR-5
[12] = test system: M14
[13] = test system: HOP-62
[14] = test system: NCI/ADR-RES
[15] = test system: Hs-578T
[16] = test system: HL-60
[17] = test system: SW-620
[18] = test system: RXF 393
[19] = test system: NCI-H460

Measured: GI50

Cc1ccc2c(O)cc(-c3sc4ccccc4c3C)nc2n1
inactive: [1] 22.9 µM | [2] 17.1 µM | [3] 21.6 µM | [4] 16.4 µM | [5] 16.9 µM | [6] 49.5 µM | [7] 21.8 µM | [8] 21.6 µM | [9] 23.4 µM | [10] 15.7 µM | [11] 34 µM | [12] 17.5 µM | [13] 25.1 µM | [14] 17.1 µM | [15] 19.9 µM

COc1cc(C)c(/C=C/C(=O)N2C(=O)OC[C@@H]2c2ccccc2)c(C)c1
inactive: [1] 37.6 µM | [2] > 100 µM | [16] 98.4 µM | [3] > 100 µM | [4] > 100 µM | [6] > 100 µM | [7] > 100 µM | [8] > 100 µM | [9] > 100 µM | [17] > 100 µM | [18] 9.02 µM | [10] 61.9 µM | [11] > 100 µM | [12] > 100 µM | [13] > 100 µM | [14] 28.6 µM | [15] 88.9 µM

CS(=O)(=O)OCCN1CCC2(CC1)SSC1(CCN(CCOS(C)(=O)=O)CC1)S2
inactive: [2] 45.4 µM | [16] 24.3 µM | [19] 34.8 µM | [3] 22.3 µM | [5] 45.5 µM | [6] > 100 µM | [7] 19.8 µM | [8] 21.8 µM | [9] 28.7 µM | [17] 42.3 µM | [10] > 100 µM | [11] 24 µM | [12] > 100 µM | [13] > 100 µM | [14] > 100 µM | [15] 82.6 µM

COC(=NCCC1=CCCCC1)OC
inactive: [1] > 100 µM | [2] > 100 µM | [19] 57.1 µM | [3] > 100 µM | [4] 32.4 µM | [5] > 100 µM | [6] > 100 µM | [8] > 100 µM | [9] 16.3 µM | [17] 62.8 µM | [18] > 100 µM | [10] 78.9 µM | [11] 51.3 µM | [12] 21.1 µM | [13] > 100 µM | [14] 58.9 µM | [15] > 100 µM

O=C(O)C/C(=C\c1ccco1)C(=O)O
inactive: [1] > 100 µM | [2] > 100 µM | [16] > 100 µM | [4] > 100 µM | [5] > 100 µM | [6] > 100 µM | [7] > 100 µM | [8] > 100 µM | [9] > 100 µM | [17] > 100 µM | [18] > 100 µM | [10] > 100 µM | [11] > 100 µM | [12] > 100 µM | [13] > 100 µM | [14] > 100 µM

CC(C)(NO)/C(=N\O)c1ccccc1
inactive: [1] > 10 µM | [2] > 10 µM | [16] > 10 µM | [19] > 10 µM | [3] > 10 µM | [4] > 10 µM | [5] > 10 µM | [6] > 10 µM | [8] > 10 µM | [9] > 10 µM | [17] > 10 µM | [18] > 10 µM | [10] > 10 µM | [11] > 10 µM | [12] > 10 µM | [13] > 10 µM | [14] > 10 µM

COc1ccc2c(c1)OCC1(O)Cc3ccccc3OC21 (centres undefined)
inactive: [1] > 100 µM | [2] > 100 µM | [3] > 100 µM | [4] > 100 µM | [5] > 100 µM | [6] > 100 µM | [7] > 100 µM | [8] > 100 µM | [9] > 100 µM | [17] > 100 µM | [10] > 100 µM | [11] > 100 µM | [12] > 100 µM | [13] > 100 µM | [14] > 100 µM

CCC(=O)Nc1ccc(N2C(=O)C(Cl)C2c2ccc(SC)cc2)cc1 (centres undefined)
inactive: [1] > 100 µM | [2] > 100 µM | [16] 78.3 µM | [19] 32.8 µM | [3] 60.3 µM | [4] 41 µM | [5] > 100 µM | [7] 40.1 µM | [8] > 100 µM | [9] 40.4 µM | [17] > 100 µM | [18] 34.8 µM | [10] > 100 µM | [11] 97.5 µM | [12] > 100 µM | [13] 61.7 µM | [14] > 100 µM | [15] > 100 µM

CN1N=C(c2ccncc2)OC1c1cccc(C(F)(F)F)c1 (centres undefined)
inactive: [1] > 100 µM | [2] > 100 µM | [16] 81.3 µM | [19] > 100 µM | [3] > 100 µM | [4] > 100 µM | [6] 41.2 µM | [7] > 100 µM | [9] > 100 µM | [17] > 100 µM | [18] > 100 µM | [10] > 100 µM | [11] > 100 µM | [12] > 100 µM | [13] > 100 µM | [14] > 100 µM | [15] > 100 µM

Cc1ccc(-c2c(C#N)c(-c3ccc([N+](=O)[O-])cc3)c(C#N)c(=O)n2NS(=O)(=O)c2ccc(C)cc2)cc1
inactive: [2] 40.9 µM | [16] 31.3 µM | [19] 39.8 µM | [3] 79.3 µM | [4] 31.8 µM | [5] 16.5 µM | [6] 61.9 µM | [7] 33.4 µM | [8] 50.6 µM | [9] 80.4 µM | [17] 51.6 µM | [18] 52.2 µM | [10] 30.2 µM | [11] > 100 µM | [12] 54.1 µM | [13] 67.1 µM | [14] 38.1 µM | [15] 30.7 µM

Cc1nc(-c2cc3cc([N+](=O)[O-])ccc3oc2=O)cs1
inactive: [1] > 100 µM | [2] > 100 µM | [16] 31.8 µM | [19] > 100 µM | [3] > 100 µM | [5] > 100 µM | [6] 80.7 µM | [7] > 100 µM | [8] > 100 µM | [9] > 100 µM | [17] > 100 µM | [18] > 100 µM | [10] > 100 µM | [11] > 100 µM | [12] > 100 µM | [13] > 100 µM | [15] > 100 µM

Oc1c(/N=N\c2ccccc2)c2cccc3ccc4cccc1c4c32
inactive: [1] > 100 µM | [2] 81.7 µM | [3] 45.9 µM | [4] > 100 µM | [5] > 100 µM | [6] 94.4 µM | [7] > 100 µM | [8] > 100 µM | [9] > 100 µM | [17] > 100 µM | [18] > 100 µM | [10] > 100 µM | [11] > 100 µM | [12] > 100 µM | [13] 29.6 µM | [14] > 100 µM | [15] 33.7 µM

N#CCCN(CCC#N)c1ccc(C(=N/c2ccc(F)cc2)/N=N/c2ccc(Cl)cc2)cc1
inactive: [1] > 100 µM | [2] > 100 µM | [19] > 100 µM | [3] > 100 µM | [4] > 100 µM | [5] > 100 µM | [6] > 100 µM | [8] > 100 µM | [9] > 100 µM | [17] > 100 µM | [18] > 100 µM | [10] > 100 µM | [11] > 100 µM | [12] > 100 µM | [13] > 100 µM | [14] > 100 µM | [15] > 100 µM

COc1ccc(-n2cnc3c(NC(CCSC)C(=O)O)ncnc32)cc1 (centres undefined)
inactive: [1] > 100 µM | [2] > 100 µM | [19] > 100 µM | [3] > 100 µM | [4] > 100 µM | [5] > 100 µM | [6] > 100 µM | [7] > 100 µM | [8] > 100 µM | [9] > 100 µM | [17] > 100 µM | [10] > 100 µM | [11] > 100 µM | [12] > 100 µM | [13] > 100 µM | [14] > 100 µM | [15] > 100 µM

O=C(/C=C/c1ccsc1)c1ccc(Cl)s1
inactive: [1] > 100 µM | [2] 59.4 µM | [16] 24.8 µM | [19] > 100 µM | [3] 67.5 µM | [6] > 100 µM | [7] 19.4 µM | [8] > 100 µM | [9] > 100 µM | [17] 24.7 µM | [10] 19.5 µM | [12] > 100 µM | [13] > 100 µM | [14] > 100 µM | [15] > 100 µM

CCC1(c2ccc(N3C(=O)c4cccc5cc([N+](=O)[O-])cc(c45)C3=O)cc2)CCC(=O)NC1=O (centres undefined)
inactive: [1] > 44.9 µM | [2] 15.9 µM | [19] 6.35 µM | [3] 15.1 µM | [4] 1.81 µM | [5] 13.5 µM | [6] 5.16 µM | [7] 11.9 µM | [8] 14.2 µM | [9] 9.57 µM | [17] 11.4 µM | [18] 7.14 µM | [10] > 100 µM | [11] 60.8 µM | [12] 61.5 µM | [13] 9.12 µM | [14] 17 µM | [15] 16.1 µM

CC(=O)N1C(NN(C)C)CCN1c1ccccc1 (centres undefined)
inactive: [1] > 10 µM | [2] > 10 µM | [16] > 10 µM | [3] > 10 µM | [6] > 10 µM | [8] > 10 µM | [9] > 10 µM | [17] > 10 µM | [18] > 10 µM | [10] > 10 µM | [12] > 10 µM | [13] > 10 µM
